Assay results from US9434769B2, “Peptide compositions and methods for inhibiting herpesvirus infection” (priority 2009, dated 2016).
Where two headings read alike, the source gives them in different places.

Assays:
Towne GFP strain of HCMV = assay type: cell-based, Human Cytomegalovirus (HCMV); details: for inhibition of viral infection: HFF cells, MOI 0.5, 48 hours post infection
Method: The Towne strain of HCMV containing the Green Fluorescent Protein (GFP) expression cassette was obtained from Dr. Dan Streblow at the Oregon Health Science University and was propagated in human foreskin fibroblast (HFF) cells. Viral supernatants were collected, centrifuged to clear cell debris, and filtered through a 0.45 μm filter. HFF cells were grown in Dulbecco's modified Eagle medium (DMEM) supplemented with 10% fetal bovine serum (FBS), penicillin G (100 U/mL), streptomycin ([…]), and GLUTAMAX™ L-glutamine supplement (2 mM) from Invitrogen.
Human foreskin fibroblasts were seeded at the density of about 3.5×10^5 cells in each well of a 24-well plate about 24 hours prior to infection. The HFF cells were washed with 1×DPBS, and mock or virus infected for about 90 minutes at room temperature (RT) with the Towne GFP strain of HCMV at about 0.5 multiplicity of infection (MOI), preincubated with a range of concentrations of inhibitory peptides at about 37° C. for about 90 minutes. After the infection, virus mixture was removed and 10% FBS complete DMEM was added to each well and cells were incubated at about 37° C. for about 48 hours. GFP positive cells were visualized about 48 hours post infection by fluorescence microscopy and then quantified using flow cytometry. […] HFF cells were trypsinized, centrifuged, and resuspended in 1% FBS-Dulbecco's phosphate buffered saline (DPBS). GFP positive cells were quantified using flow cytometry (CYTOMICS FC 500 from Beckman Coulter, Fullerton, Calif.).
All of the synthetic peptides were tested at the following concentrations: about 100 μM, 50 μM, 25 μM, 10 μM, 5 μM, 2.5 μM, 1.25 μM, 0.625 μM, 0.3125 μM, 0.156 μM, and 0.078 μM.

HSV-1 McIntyre strain = test: Inhibition of HSV-1 infection of Vero cells (Crystal Violet staining); assay type: cell-based, Herpes Simplex Virus 1 (HSV-1); details: MOI 0.001, peptide 2.5 to 100 μM; for inhibition of HSV-1 infection: 48 hours
Method: FIG. 6 illustrates inhibition of HSV-1 infection by HCMV gB peptides. To evaluate the ability of newly designed HCMV gB-specific peptide to inhibit HSV-1 infection, Vero cells were infected for about 90 minutes at room temperature with HSV-1 (McIntyre strain; MOI=0.001) that was preincubated with a range of concentrations of four different synthetic peptides at about 37° C. for about 90 minutes. Each treatment was done in triplicate, where A=media, B=HSV-1 MOI of 0.001, C=100 μM peptide and virus, D=50 μM peptide and virus, E=25 μM peptide and virus, F=10 μM peptide and virus, G=5 μM peptide and virus, H=2.5 μM peptide and virus. HCMV gB peptides (Peptide 174-200 (SEQ ID NO: 3), Peptide 233-263 (SEQ ID NO: 4), and Peptide 264-291 (SEQ ID NO: 5)) that are within domain II were inhibitory against HSV-1 infection. Peptide 476-494 (SEQ ID NO: 7) corresponds to trimerization domain of HCMV gB that contains extended α-helices important in the formation of HCMV gB homotrimer during fusion of HCMV virion and lipid membrane of the host cell. Overlapping inhibitory HSV-1 peptides span regions 496-510 and 501-515 of HSV-1 gB (SEQ ID NO: 8) and are analogous to HCMV gB Peptide 476-494 (SEQ ID NO: 7).
To evaluate the ability of HCMV gB peptides to inhibit infection by HSV-1, Vero cells were plated at a density of about 1.5×10^5 cells in each well of a 24 well-plate 24 hours prior to infection. The cells were washed and mock- or virus-infected for about 90 minutes at room temperature with HSV-1 McIntyre strain (ATCC) of about 0.001 MOI preincubated with a range of concentrations of four different synthetic peptides at about 37° C. for about 90 minutes. After exposure to the virus, the virus mixture was removed and the cells were overlayed with 2% FBS MEM containing 1% methylcellulose. Cells were incubated for about 48 hours at about 37° C. After about 48 hours, the cells were fixed, stained with Crystal Violet, and air dried.
In FIG. 6, each treatment was done in triplicate, where A=media, B=HSV-1 MOI of 0.001, C=100 μM peptide and virus, D=50 μM peptide and virus, E=25 μM peptide and virus, F=10 μM peptide and virus, G=5 μM peptide and virus, H=2.5 μM peptide and virus. […] Peptide 476-494 (SEQ ID NO: 7) corresponds to the trimerization domain of HCMV gB, which contains extended α-helices important in the formation of HCMV gB homotrimer during fusion of HCMV virion and lipid membrane of the host cell. Overlapping inhibitory HSV-1 peptides that span regions 496-510 and 501-515 of the HSV-1 gB protein (SEQ ID NO: 8) are analogous to HCMV gB peptide 476-494 (SEQ ID NO: 7). As predicted, HCMV Peptide 476-494 (SEQ ID NO: 7) worked best at the concentration of about 2.5 μM.

HCMV TRpMIA = test: Inhibition of HCMV TRpMIA infection of HFF cells (IE-1/IE-2 positive cells); assay type: cell-based, Human Cytomegalovirus (HCMV); details: for significance of inhibition of infection: vs non-treated infected control
Method: In order to assess the ability of the peptides of the present invention to inhibit a clinically significant HCMV (HCMV TRpMIA), Peptide 174-200 (SEQ ID NO:3), Peptide 233-263 (SEQ ID NO: 4), and Peptide 264-291 (SEQ ID NO: 5), were tested for inhibition of HCMV TRpMIA infection of HFF cells under the assay conditions similar to these described in Example 2 for the Towne strain of HCMV, above. In particular, HFF cells were plated in 96-well plates at a density of about 10,000 cells-per-well about 24 hours […]. Individual inhibitory peptides were evaluated against 0.5 MOI HCMV TRpMIA preincubated with various concentrations in the range of about 0.078 micromolar to about 100 micromolar. The results obtained from these assays are shown in FIG. 13, FIG. 14, and FIG. 15 for Peptide 174-200, Peptide 233-263, and Peptide 264-291, respectively. The degree of HCMV infection was determined by evaluating the number of cells expressing immediate-early 1 (IE-1) or IE-2 HCMV proteins 24 hours post-infection. Treatments resulting in significant reductions in the number of cells that were positive for IE 1, IE-2, or both, compared to non-treated control HCMV infected cells, are denoted by a * (p<0.05), ** (p<0.01), and *** (p<0.001, one-way ANOVA and Tukey's post test). Variants and derivatives of Peptide 233-263 (SEQ ID NO: 4) also were prepared and tested in the same assay. The sequences of the tested variants and derivatives are shown in Table 4, with additions or modifications from SEQ ID NO: 4 shown in boldface type.

HIV-1 = details: cited from earlier work
[1] = pregnancy; cited from earlier work
[2] = 50 micromolar, 24 hours post-infection
[3] = 100 micromolar, 24 hours post-infection
[4] = 25 micromolar, 24 hours post-infection
[5] = 25 micromolar to 100 micromolar

FFIFPNYTIVSDFGRPNAA (human cytomegalovirus glycoprotein B peptide) [Peptide 297-315, synthetic peptide of HCMV gB residues 297-315]
inhibition of viral infection (Towne GFP strain of HCMV; peptide 50 μM): about 40%

HFFATSTGDVVYISPFYNGTNRNASYFG (human cytomegalovirus glycoprotein B peptide) [Peptide 264-291, synthetic peptide of HCMV gB residues 264-291]
inhibition of HSV-1 infection (HSV-1 McIntyre strain): inhibited HSV-1 infection
significance of inhibition of infection (HCMV TRpMIA; [2]): * (* (p<0.05))
significance of inhibition of infection (HCMV TRpMIA; [3]): * (* (p<0.05))
inhibition of viral infection (Towne GFP strain of HCMV; peptide 5 μM): about 70.5%

HNLVYAQLQFTYDTLRGYI (human cytomegalovirus glycoprotein B peptide) [Peptide 476-494, synthetic peptide of the trimerization domain of HCMV gB, residues 476-494]
concentration at which the peptide worked best against HSV-1 (HSV-1 McIntyre strain): about 2.5 μM
number of HCMV infected cells versus peptide concentration (Towne GFP strain of HCMV; decreasing peptide concentration): the number of HCMV infected cells decreased as the concentration of this peptide decreased
inhibitory activity against HCMV strain Towne-GFP (Towne GFP strain of HCMV; high concentrations tested): did not show any inhibitory activity

KDQWHSRGSTWLYRETANLNAMLTITTARSKYPY (Modified HCMV gB peptide) [Peptide 233-263.1]
inhibition of HCMV TRpMIA infection compared to Peptide 233-263 (HCMV TRpMIA): less effective
inhibition relative to the controls (HCMV TRpMIA): some level of inhibition

KDQWHSRGSTWLYRETANLNAMLTITTARSKYPYHFFATS [Peptide 233-263.4]
inhibition of HCMV TRpMIA infection compared to Peptide 233-263 (HCMV TRpMIA): less effective
inhibition relative to the controls (HCMV TRpMIA): some level of inhibition

VTVKDQWHSRGSTWLYRETANLNAMLTITTARSKYPY (Modified HCMV gB peptide) [Peptide 233-263.2]
inhibition of HCMV TRpMIA infection compared to Peptide 233-263 (HCMV TRpMIA): less effective
inhibition relative to the controls (HCMV TRpMIA): some level of inhibition

WEIHHINKFAQAYSSYSRVIGGTVFVA [Peptide 174-200]
inhibition of HSV-1 infection (HSV-1 McIntyre strain): inhibited HSV-1 infection
significance of inhibition of infection (HCMV TRpMIA; [4]): ** (** (p<0.01))
significance of inhibition of infection (HCMV TRpMIA; [2]): * (* (p<0.05))
significance of inhibition of infection (HCMV TRpMIA; [3]): *** (*** (p<0.001, one-way ANOVA and Tukey's post test))
inhibition of viral infection (Towne GFP strain of HCMV; peptide 2.5 μM): ~62%
inhibition of viral infection (Towne GFP strain of HCMV; peptide 5 μM): about 51%
inhibition of viral infection (Towne GFP strain of HCMV; peptide 100 μM): about 80%

WHSRGSTWLYRAETANLNAMLTITTARSKYPY (Modified HCMV gB peptide) [Peptide 233-263.5]
inhibition of HCMV TRpMIA infection compared to Peptide 233-263 (HCMV TRpMIA): less effective
inhibition relative to the controls (HCMV TRpMIA): some level of inhibition

WHSRGSTWLYRETANLNAMLTITTARSKYPY [Peptide 233-263]
inhibition of HSV-1 infection (HSV-1 McIntyre strain): inhibited HSV-1 infection
significance of inhibition of infection (HCMV TRpMIA; 5 micromolar, 24 hours post-infection): * (* (p<0.05))
significance of inhibition of infection (HCMV TRpMIA; 10 micromolar, 24 hours post-infection): *** (*** (p<0.001, one-way ANOVA and Tukey's post test))
significance of inhibition of infection (HCMV TRpMIA; [4]): *** (*** (p<0.001, one-way ANOVA and Tukey's post test))
significance of inhibition of infection (HCMV TRpMIA; [2]): *** (*** (p<0.001, one-way ANOVA and Tukey's post test))
extent of inhibition of infection (HCMV TRpMIA; 50 to 100 micromolar): almost complete inhibition
significance of inhibition of infection (HCMV TRpMIA; [3]): *** (*** (p<0.001, one-way ANOVA and Tukey's post test))
inhibition of infection seen in fluorescent and bright light images (FIG. 4) (Towne GFP strain of HCMV; 100 μM, MOI 0.5, 48 hours post-infection): effectively inhibited infection of the cells
inhibition of viral infection (Towne GFP strain of HCMV; peptide 2.5 μM): about 60%
inhibition of viral infection (Towne GFP strain of HCMV; peptide 50 μM): about 92%
inhibition of viral infection (Towne GFP strain of HCMV; peptide 100 μM): about 97%

WHSRGSTWLYRETANLNAMLTITTARSKYPYGRKKRRQRRRP (human cytomegalovirus glycoprotein B peptide) [Peptide 233-263.8]
inhibition of HCMV TRpMIA infection compared to Peptide 233-263 (HCMV TRpMIA): less effective
inhibition relative to the controls (HCMV TRpMIA): some level of inhibition

WHSRGSTWLYRETANLNAMLTITTARSKYPYHFF (Modified HCMV gB peptide) [Peptide 233-263.3]
inhibition of HCMV TRpMIA infection compared to Peptide 233-263 (HCMV TRpMIA): less effective
inhibition relative to the controls (HCMV TRpMIA): some level of inhibition

WHSRGSTWLYRETANLNAMLTITTARSKYPYP (Modified HCMV gB peptide) [Peptide 233-263.6]
inhibition of HCMV TRpMIA infection compared to Peptide 233-263 (HCMV TRpMIA): less effective
inhibition relative to the controls (HCMV TRpMIA): some level of inhibition

WHSRGSTWLYRETANLNAMLTITTARSKYPYRRRRRRRRR (human cytomegalovirus glycoprotein B peptide) [Peptide 233-263.9]
extent of inhibition of infection (HCMV TRpMIA; [5]): almost complete inhibition
significance of inhibition of infection (HCMV TRpMIA; [5]): *** (*** (p<0.001, one-way ANOVA and Tukey's post test))
inhibition of HCMV TRpMIA infection compared to Peptide 233-263 (HCMV TRpMIA): significant improvement

enfuvirtide
vertical transmission of HIV-1 in pregnancy (HIV-1): prevents vertical transmission of HIV-1 in pregnancy
crossing of the placenta [1]: does not cross the placenta
